From patent publication US10875864B2, “Substituted imidazo[1,2-B]pyridazines as protein kinase inhibitors” (SUMITOMO DAINIPPON PHARMA ONCOLOGY, INC., priority 2011, dated 2020) come the findings set out here.

The test system of series [1] is phosphatidyl inositol-3-kinase (PI3K) family. In words: Selectivity study, PI3K family. The class given is biochemical. Conditions: multiple members.
A further series deals with 22RV1/PIM-1 xenografts. Kind of series: 22RV1/PIM-1 over-expression tumor xenograft. The series is classed as in vivo, mouse. From the text:
(§1) Male and female Nu/Nu mice were purchased from Harlan Sprague Dawley (Indianapolis, Ind.). Female Nu/Nu mice were used for all xenograft evaluations with the exception of the PC-3 xenografts where male Nu/Nu mice were used. Cell lines were expanded in vitro in complete media, and if adherent were harvested by trypsin-EDTA, centrifuged and resuspended in PBS 1:1 with Matrigel (BD Bioscienes). Cells were inoculated subcutaneously in the right hind flank of mice. When tumors reached 100-200 mm^3 by caliper measurement, mice were randomized and dosing of SGI-9481 or vehicle control began and continued every day for 5 days (QD×5) with 2 days off for 18-21 days. Tumor volumes and body weights were determined twice a week, and tumor weights were measured at the completion of the translational xenograft studies.
(§2) The prostate cancer cell line 22RV1 engineered to over-express PIM-1 as previously described (Mumenthaler, et al, Mol. Cancer Ther., 2009, 8(10)2882-93) was evaluated in vivo. A second model engineered to over-express PIM-2 was established using the NIH-3T3 mouse fibroblast cell line.

Series [2] has as its system ML-2 cells (wild-type FLT3). Kind of series: ML-2 mouse xenograft. The series is classed as in vivo. Conditions: ML-2, wild-type FLT3.
Description: as §1

In a further series the test system is PC-3 cells. In words: Colony formation assay, PC-3. The class given is cell-based. Here is the method:
(§3) For shRNA growth experiments, 500 UM-UC-3 cells were seeded in a 12-well plate 48 hours post-transduction and cultured for 8-10 days at 37° C. in 5% CO2. Cells were fixed with 4% paraformaldehyde in PBS, washed twice with PBS, and stained with a crystal violet solution (1% crystal violet, 10% ethanol in water). Stained cells were washed thrice with water, and imaged after drying on a GelCount colony counter (Oxford Optronix Ltd., Oxford, UK). Total staining intensity per well was determined by lysis of cells with 200 μl of Triton X-100 lysis buffer (1% Triton X-100, 50 mM Tris-HCl pH 7.4, 150 mM NaCl, 1 mM EDTA). Lysates (100 μl) from each well were transferred to a clear 96-well plate and absorbance at 560 nm was determined on an Envision microplate reader. IC50 values were determined using GraphPad Prism software. For compound treated PC-3 and UM-UC-3, cells were seeded and stained as above, but were incubated with various concentrations of test compound or DMSO one day after seeding.
(§4) Translational models were also explored for PIM dependency using shRNA knockdown. The UM-UC-3 urinary epithelial bladder carcinoma cell line was used to verify and validate dependency on PIM-1 for growth. […] Reduction of PIM-1 mRNA and growth also were observed using both PIM-1 and PIM-2 shRNA in the androgen-independent prostate carcinoma cell line PC-3 (data not shown).

The next series relates to PC-3 xenograft tumors. In words: PC-3 established mouse xenograft. The series is classed as in vivo.
Description: as §1, with “When tumors reached 100-200 mm^3 by caliper measurement, mice were randomized and dosing of SGI-9481 or vehicle control began and continued every day for 5 days (QD×5) with 2 days off for 18-21 days.” left out

The next series relates to MV-4-11 (FLT3-ITD). In words: MV-4-11 mouse xenograft. The class given is in vivo.
Description: as §1

For a further series, the system named is UM-UC-3 cells. In words: Colony formation assay, UM-UC-3. The class given is cell-based. Here is the method: as §3, §4
In the next series the test system is NIH-3T3/PIM-2 xenografts. In words: NIH-3T3/PIM-2 over-expression tumor xenograft. The series is classed as in vivo, mouse.
Description: as §1, §2

The next series concerns UM-UC-3 xenograft tumors. In words: UM-UC-3 established mouse xenograft. The class given is in vivo.
Description: as §1, with “When tumors reached 100-200 mm^3 by caliper measurement, mice were randomized and dosing of SGI-9481 or vehicle control began and continued every day for 5 days (QD×5) with 2 days off for 18-21 days.” left out

Structures are written as SMILES.

In the case of `CC(C)(O)[C@H]1CC[C@H](Nc2ccc3ncc(-c4cccc(C(F)(F)F)c4)n3n2)CC1` [Compound 8-31], the “activity against PI3K family members” value in series [1] is listed as “inhibitory activity”. Also, the subcutaneous tumor growth entry in the series on 22RV1/PIM-1 xenografts (22RV1/PIM-1 + compound vs vehicle) is on record as “significantly reduced”; with NIH-3T3/PIM-2 xenografts (NIH-3T3/PIM-2 + compound vs vehicle), “significantly inhibited”. Further, the body weight change result with 22RV1/PIM-1 xenografts (22RV1 xenograft mice) and in the series on NIH-3T3/PIM-2 xenografts (NIH-3T3 xenograft mice) was “No significant changes in body weight” each time. Moreover, the tumor growth inhibition entry (in series [2]; with PC-3 xenograft tumors (125 mg/kg); in the series with UM-UC-3 xenograft tumors (125 mg/kg)) was “significant tumor growth inhibition” in each case. In addition, the colony growth entry with PC-3 cells and in the series on UM-UC-3 cells was “reduced colony growth” throughout. Moreover, the “body weight and gross toxicity” value in the series on PC-3 xenograft tumors (oral 200 mg/kg) and in the series on UM-UC-3 xenograft tumors (oral 200 mg/kg) was “no significant changes in body weight or gross adverse toxicity” throughout. Further, the “tumor growth by volume and final tumor weight” value in the series with PC-3 xenograft tumors (oral 200 mg/kg) and in the series with UM-UC-3 xenograft tumors (oral 200 mg/kg) was “significantly reduced” each time. In the series with MV-4-11 (FLT3-ITD), the “effect on established xenografts” value is given as “induced regressions”.
